Measurements from PMC5653977 (EMBO Molecular Medicine, 2017).
Values joined by “and” are separate entries in the source; they are usually repeats but may differ in a detail not shown here. Equal entries are not always repeated. Structures can show the parent of a compound that is named as a salt.

Each molecule was assayed on NRG1-ERBB4 signaling (assay: Nrg1-ERBB4-PIK3R1 split TEV co-culture compound screen of the NIH Clinical Collection). Settings: not given.
Format: cell-based, human
Source text: For our HTS‐compatible split TEV assay approach, human full‐length ERBB4‐Cyt1 was fused to the NTEV fragment, a TEV protease cleavage site (tevS) and the artificial co‐transcriptional activator Gal4‐VP16 (ERBB4‐NTEV‐tevS‐GV); human PIK3R1 was fused to the CTEV fragment (PIK3R1‐CTEV) (Fig 1A). Upon ERBB4 activation, PIK3R1 is recruited to the receptor resulting in a reconstituted protease activity that cleaves off GV. In turn, released GV translocates to the nucleus and binds to upstream activating sequences (UAS) to activate the transcription of a firefly luciferase reporter gene (Fig 1A). A constitutively expressed Renilla luciferase driven under the control of the human thymidine kinase (TK) promoter was used as control to address off‐target effects related to toxicity.
For small molecule screening, the NIH‐NCC Clinical Collection library (sets NCC‐003 and NCC‐201) was used containing 727 small molecules that are FDA‐approved and have a history in clinical applications (www.nihclinicalcollection.com). A Hamilton Labstar robot connected to 37 and 4°C incubators for cell incubation and compound storage and application (Cytomat automated incubator, ThermoScientific) and to a luciferase reader (Berthold Technologies) was used to automatically perform the screening. […] Each batch was screened three times.
For one 96‐well plate, 4 × 10^6 PC12 cells were harvested and diluted in 5 ml assay medium (phenol red‐free DMEM (low glucose, Life Technologies), 10% FCS, 5% HS, no antibiotics). The split TEV assay plasmids (2 μg pcDNA3_ERBB4‐NTEV‐tevS‐GV‐2xHA, 2 μg pTag4C_PIK3R1‐CTEV‐2xHA, 2 μg p5xUAS_firefly luciferase, 2 μg pTK_Renilla luciferase, and 0.5 μg pECFP‐C1 for examining transfection efficiency) were diluted in 2.5 ml Opti‐MEM (Life Technologies) and vortexed. In parallel, 20 μl of the transfection reagent Lipofectamine 2000 was diluted in 2.5 ml Opti‐MEM and vortexed.
For plating of one 96‐well plate, 10 ml suspension, containing the 4 × 10^6 in solution‐transfected cells, was placed in the bubble paddle reservoir of the Hamilton Cellstar robot. 100 μl was seeded per 96‐well using the 96‐tip pipetting head. The homogeneity of the cell suspension was guaranteed over time by mild stirring using the paddling device inside the reservoir. For five plates each, 50 ml of additional cell suspension was used to allow for losses of inaccessible volume.
The cells were allowed to express the plasmids for 24 h before compounds were added. Proper expression and transfection efficiency were verified by ECFP expression on a clear control plate. The compounds were applied in a final concentration of 10 μM using DMSO as diluent. […] Thirty minutes later, 10,000 Nrg1‐expressing PC12 cells in 100 μl assay medium were seeded on top. 24 h after addition of the compounds, the cells were lysed using 40 μl Passive Lysis buffer (Promega) and subjected to a Dual Luciferase Assay (Promega) according to the manufacturer's instructions. The data were analyzed in R Bioconductor using the package cellHTS2 (http://www.bioconductor.org/packages/devel/bioc/html/cellHTS2.html), assessed using the z‐score, and visualized using the program Mondrian (http://stats.math.uni-augsburg.de/mondrian/).
`Cl.Nc1c2c(nc3ccccc13)CCCC2` showed a Z-SCORE of 1.29. `C[C@]12CC[C@H]3[C@@H](CCC4=CC(=O)CC[C@@]43C)[C@@H]1CC[C@@H]2O` [Testosterone, reference compound] was tested, and the Z-SCORE was 0.79 and 0.91.

Same assay, conditions: NIH Clinical Collection NCC-003 raw data; compounds ranked by Z-score; 'flagged' given instead of a Z-score
With `CC(=O)O[C@@]12CO[C@@H]1C[C@H](O)[C@@]1(C)C(=O)[C@H](O)C3=C(C)[C@@H](OC(=O)[C@H](O)[C@@H](NC(=O)OC(C)(C)C)c4ccccc4)C[C@@](O)([C@@H](OC(=O)c4ccccc4)[C@H]21)C3(C)C` [DOCETAXEL] the Z-SCORE was -1.13. In the case of `O=C1Nc2ccc(Cl)cc2[C@@](C#CC2CC2)(C(F)(F)F)O1` [EFAVIRENZ], the Z-SCORE is reported as “flagged”. `COc1ccc(CN2CCN(C(c3ccc(F)cc3)c3ccc(F)cc3)CC2)c(OC)c1OC.Cl.Cl` [LOMERIZINE DiHCl] gave a Z-SCORE of -1.48. `Nc1nc(N)nc(-c2cc(Cl)ccc2Cl)n1` [IRSOGLADINE MALEATE] was tested, and the Z-SCORE was -1.2. `NC(N)=Nc1nc(CSCCC(N)=NS(N)(=O)=O)cs1` [FAMOTIDINE] gave a Z-SCORE of -1.65.

Same assay, conditions: compound screen of the NIH Clinical Collection, sheet raw data NCC-003; compounds ranked by Z-score
`COc1ccnc(C[S+]([O-])c2nc3cc(OC(F)F)ccc3[n-]2)c1OC.[Na+]` (stereo not drawn) [PANTOPRAZOLE SODIUM SALT] was tested, and the Z-SCORE was 1.42. With `C[N+]1(C)CCN(c2ccccc2)CC1.[I-]` [1,1-DIMETHYL-4-PHENYLPIPERAZINIUM IODIDE] the Z-SCORE was 2.45. In the case of `CN1[C@@H](CC(=O)c2ccccc2)CCC[C@H]1C[C@H](O)c1ccccc1` [LOBELINE HYDROCHLORIDE], the Z-SCORE is reported as 0.14. Molecule `CCCCCCCCCCC[C@@H](C[C@@H]1OC(=O)[C@H]1CCCCCC)OC(=O)[C@H](CC(C)C)NC=O` [ORLISTAT] has a Z-SCORE of 0.19. In the case of `CN1C(=O)CN=C(c2ccccc2)c2cc([N+](=O)[O-])ccc21` [Nimetazepam], the Z-SCORE is reported as 0.16. `CC(=O)OCC(=O)NCCCOc1cccc(CN2CCCCC2)c1` [ROXATIDINE ACETATE HCl] gave a Z-SCORE of -0.59. With `C[C@]12CCC(=O)C=C1CC[C@@H]1[C@@H]2CC[C@@]2(C)[C@H]1CC[C@]2(C)O` [Methyltestosterone] the Z-SCORE was -0.41. Molecule `Cc1cc2c(s1)Nc1ccccc1N=C2N1CCN(C)CC1` [OLANZAPINE] has a Z-SCORE of -0.89. With `COc1ccc2cc([C@H](C)C(=O)O)ccc2c1` [NAPROXEN SODIUM] the Z-SCORE was 0.35. Molecule `CC(=O)OCC(CCn1cnc2cnc(N)nc21)COC(C)=O` [FAMCICLOVIR] has a Z-SCORE of 1.05. Work on `C/C=C1\[C@H]2C=C(C)C[C@]1(N)c1ccc(=O)[nH]c1C2` [HUPERZINE A] yielded a Z-SCORE of -0.3. `Cc1ncc2n1-c1ccc(Cl)cc1C(c1ccccc1F)=NC2` [MIDAZOLAM HCl] showed a Z-SCORE of 0.91. With `COc1cc(/C=C/c2ccc(O)cc2)cc(OC)c1` [PTEROSTILBENE] the Z-SCORE was -0.71. `CCC(=O)O[C@]1(C(=O)SCF)[C@H](C)C[C@H]2[C@@H]3C[C@H](F)C4=CC(=O)C=C[C@]4(C)[C@@]3(F)[C@@H](O)C[C@@]21C` [FLUTICASONE PROPIONATE] was tested, and the Z-SCORE was -0.31. `CCOC(=O)c1ccc(OC(=O)CCCCCN=C(N)N)cc1.CS(=O)(=O)O` [Gabexate mesylate] gave a Z-SCORE of -0.47. For `CC=CC(=O)N(CC)c1ccccc1C` [483-63-6], the Z-SCORE was -0.8. Work on `O=C1CN2Cc3c(ccc(Cl)c3Cl)N=C2N1` [ANAGRELIDE HCl] yielded a Z-SCORE of -0.48. With `C[C@H](N[C@@H](CCc1ccccc1)C(=O)O)C(=O)N1CCC[C@H]1C(=O)O` the Z-SCORE was -0.43. With `CN(C/C=C/C#CC(C)(C)C)Cc1cccc2ccccc12` [TERBINAFINE HCl] the Z-SCORE was -0.44. `O=C(O)C(Cl)Cl` [DICHLOROACETIC ACID] showed a Z-SCORE of 1.9. With `CCCCC/C=C\C/C=C\C/C=C\C/C=C\CCCC(=O)Nc1ccc(O)cc1` [AM 404] the Z-SCORE was -1.01. In the case of `O=[N+]([O-])c1cccc2cn[nH]c12` [7-NITROINDAZOLE], the Z-SCORE is reported as 0.29. `Nc1nc2ccc(OC(F)(F)F)cc2s1` [Riluzole] showed a Z-SCORE of -0.53. For `COC(=O)CCc1ccc(OCC(O)CNC(C)C)cc1` (stereo not drawn) [ESMOLOL HYDROCHLORIDE], the Z-SCORE was 0.38. For `O=C(O)CCc1nc(-c2ccccc2)c(-c2ccccc2)o1` [OXAPROZIN], the Z-SCORE was 0.6. For `O=C(O[C@H]1[C@H](Oc2ccccc2COC(=O)C2(O)C=CCCC2=O)O[C@H](CO)[C@@H](O)[C@@H]1O)c1ccccc1` (stereo partly drawn) [TREMULACIN], the Z-SCORE was 0.29. `CNC1=Nc2ccc(Cl)cc2C(c2ccccc2)=[N+]([O-])C1` [CHLORDIAZEPOXIDE] gave a Z-SCORE of 0.41. `C#C[C@]1(O)CC[C@H]2[C@@H]3[C@H](C)CC4=C(CCC(=O)C4)[C@H]3CC[C@@]21C` [TIBOLONE] was tested, and the Z-SCORE was 2.26.

Same assay, conditions: compounds at 10 μM, 24 h; PC12 split TEV assay cells co-cultured with Nrg1-expressing PC12 cells; analysed with cellHTS2
`CCOC(=O)[C@H](CCc1ccccc1)N[C@@H](C)C(=O)N1CCC[C@H]1C(=O)O` [ENALAPRIL MALEATE, reference compound] showed a Z-SCORE of 0. Molecule `CN(C)[C@@H]1C(O)=C(C(N)=O)C(=O)[C@@]2(O)C(O)=C3C(=O)c4c(O)cccc4[C@@](C)(O)[C@H]3C[C@@H]12` [TETRACYCLINE, reference compound] has a Z-SCORE of 0.95. `COc1cccc2c1C(=O)c1c(O)c3c(c(O)c1C2=O)C[C@@](O)(C(C)=O)C[C@@H]3O[C@H]1C[C@H](N)[C@H](O)[C@H](C)O1` [DAUNORUBICIN HYDROCHLORIDE, reference compound] was tested, and the Z-SCORE was “flagged”. `CN(C)c1ccc(O)c2c1C[C@H]1C[C@H]3[C@H](N(C)C)C(O)=C(C(N)=O)C(=O)[C@@]3(O)C(O)=C1C2=O` [MINOCYCLINE HYDROCHLORIDE, reference compound] gave a Z-SCORE of -0.02. `Cc1cnc(NC(=O)C2=C(O)c3ccccc3S(=O)(=O)N2C)s1` [Meloxicam, reference compound] was tested, and the Z-SCORE was 0.24. Work on `Nc1nc(=O)c2nc(CNc3ccc(C(=O)N[C@@H](CCC(=O)O)C(=O)O)cc3)cnc2[nH]1` [Folic acid, reference compound] yielded a Z-SCORE of 0. For `CCCN(CCC)S(=O)(=O)c1ccc(C(=O)O)cc1` [Probenecid, reference compound], the Z-SCORE was 1.6. In the case of `CC1(C)S[C@@H]2[C@H](NC(=O)Cc3ccccc3)C(=O)N2[C@H]1C(=O)O` [Pfizerpen, reference compound], the Z-SCORE is reported as -0.19. With `C[C@](N)(Cc1ccc(O)c(O)c1)C(=O)O` [Methyldopa, reference compound] the Z-SCORE was 0.63. For `CC1=C(/C=C/C(C)=C/C=C/C(C)=C\C(=O)O)C(C)(C)CCC1` [Isotretinoin, reference compound], the Z-SCORE was -0.41. With `CN(C)C(=O)Oc1ccc[n+](C)c1` [Mestinon, reference compound] the Z-SCORE was -0.37. `NC(=O)N1c2ccccc2C=Cc2ccccc21` [Carbamazepine, reference compound] showed a Z-SCORE of -0.83. With `CCCC(=O)Nc1ccc(OCC(O)CNC(C)C)c(C(C)=O)c1` (stereo not drawn) [ACEBUTOLOL HYDROCHLORIDE, reference compound] the Z-SCORE was 0.4. `CCOC(=O)[C@H](CCc1ccccc1)N[C@@H](C)C(=O)N1Cc2ccccc2C[C@H]1C(=O)O` [Quinapril hydrochloride, reference compound] was tested, and the Z-SCORE was -1.66. For `CC/C(=C(\c1ccccc1)c1ccc(OCCN(C)C)cc1)c1ccccc1` [Tamoxifen, reference compound], the Z-SCORE was 1.48. Molecule `Clc1ccc2nsnc2c1NC1=NCCN1` [Tizanidine hydrochloride, reference compound] has a Z-SCORE of -0.96. Work on `CN1CCN(C(=O)O[C@H]2c3nccnc3C(=O)N2c2ccc(Cl)cn2)CC1` [Eszopiclone, reference compound] yielded a Z-SCORE of 0.38. `C[C@]12C=CC(=O)C=C1CC[C@@H]1[C@@H]2[C@@H](O)C[C@@]2(C)[C@H]1CC[C@]2(O)C(=O)CO` [Prednisolone, reference compound] was tested, and the Z-SCORE was -1.95. `Cc1ccc(Cl)c(Nc2ccccc2C(=O)O)c1Cl` [Meclomen, reference compound] gave a Z-SCORE of -0.25. With `O=C(NCC1CCCCN1)c1cc(OCC(F)(F)F)ccc1OCC(F)(F)F` (stereo not drawn) [Flecainide Acetate, reference compound] the Z-SCORE was -0.19. For `OCCN(CCO)c1nc(N2CCCCC2)c2nc(N(CCO)CCO)nc(N3CCCCC3)c2n1` [DIPYRIDAMOLE, reference compound], the Z-SCORE was -1.46. With `Oc1cc(Cl)ccc1Oc1ccc(Cl)cc1Cl` [Triclosan, reference compound] the Z-SCORE was “flagged”.
